Data: ChEMBL document CHEMBL1143107 (Bioorg Med Chem, 2008)

How the values were obtained:
[1] = molecular target: T1, Prostaglandin G/H synthase 2 (Homo sapiens, UniProt P35354)
T1 sequence (P35354 whole entry): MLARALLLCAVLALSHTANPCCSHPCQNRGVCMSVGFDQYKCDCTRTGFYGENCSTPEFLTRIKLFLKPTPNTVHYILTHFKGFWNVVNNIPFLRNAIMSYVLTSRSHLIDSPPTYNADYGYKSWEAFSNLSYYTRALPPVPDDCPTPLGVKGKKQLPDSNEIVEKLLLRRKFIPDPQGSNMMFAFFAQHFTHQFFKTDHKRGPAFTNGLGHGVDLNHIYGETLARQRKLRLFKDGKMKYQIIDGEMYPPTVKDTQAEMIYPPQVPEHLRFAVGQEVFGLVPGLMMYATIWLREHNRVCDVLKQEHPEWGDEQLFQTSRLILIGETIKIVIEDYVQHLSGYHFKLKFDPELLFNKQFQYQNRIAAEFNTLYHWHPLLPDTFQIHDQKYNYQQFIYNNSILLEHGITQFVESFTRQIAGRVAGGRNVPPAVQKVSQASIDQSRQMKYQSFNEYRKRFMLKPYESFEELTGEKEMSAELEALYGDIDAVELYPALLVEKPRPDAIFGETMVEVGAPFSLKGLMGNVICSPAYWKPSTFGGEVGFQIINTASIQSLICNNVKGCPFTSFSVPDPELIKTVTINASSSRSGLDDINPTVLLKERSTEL
Description: Inhibition of human COX2 in human whole blood

[2] = organism: Homo sapiens; test: Ratio of IC50 for human COX1 to IC50 for human COX2 in human whole blood; assay type: tissue-based
[3] = organism: Homo sapiens; test: Ratio of IC50 for human COX1 to IC50 for human COX2
[4] = molecular target: T1, Prostaglandin G/H synthase 2; remark: listed apart in the source

| SMILES | IC50 [1] | Ratio IC50 [2] | Ratio IC50 [3] | IC50 [4] |
| --- | --- | --- | --- | --- |
| Cc1ccc(CNc2nc(-c3ccc(S(C)(=O)=O)cc3)nc(Cl)c2C)cc1 | 36.7 nM | > 2730 | – | – |
| CC(Nc1cc(C(F)(F)F)nc(-c2ccc(S(C)(=O)=O)cc2)n1)c1ccccc1 (configuration not stated) | 522 nM | 74 | – | – |
| CS(=O)(=O)c1ccc(-c2nc(NCc3ccccn3)cc(C(F)(F)F)n2)cc1 | > 10000 nM | > 1 | > 1 | > 10000 nM |
| Cc1ccccc1CNc1cc(C(F)(F)F)nc(-c2ccc(S(C)(=O)=O)cc2)n1 | – | > 17 | – | – |
| CS(=O)(=O)c1ccc(-c2nc(SCc3cccs3)cc(C(F)(F)F)n2)cc1 | 4.1 nM | > 24400 | – | – |
| NS(=O)(=O)c1ccc(-c2nc(NCc3csc4ccccc34)cc(C(F)(F)F)n2)cc1 | > 10000 nM | > 1 | > 10 | 10000 nM |
| CS(=O)(=O)c1ccc(-c2nc(SCc3ccccc3)cc(C(F)(F)F)n2)cc1 | 528 nM | > 189 | – | – |
| CS(=O)(=O)c1ccc(-c2nc(NCc3nc4ccccc4[nH]3)cc(C(F)(F)F)n2)cc1 | > 10000 nM | > 1 | > 1 | > 10000 nM |
| Cc1c(NCc2ccc(F)cc2)nc(-c2ccc(S(C)(=O)=O)cc2)nc1C(F)(F)F | 22.4 nM | > 447 | – | – |
| Cc1ccsc1CNc1cc(C(F)(F)F)nc(-c2ccc(S(C)(=O)=O)cc2)n1 | 528 nM | 189 | – | – |
| Cc1c(Cl)nc(-c2ccc(S(C)(=O)=O)cc2)nc1NCc1ccc(F)cc1 | – | > 145 | – | – |
| CS(=O)(=O)c1ccc(-c2nc(NCc3cccnc3)cc(C(F)(F)F)n2)cc1 | > 10000 nM | > 1 | > 1 | > 10000 nM |
| CC[S+]([O-])c1cc(NCc2cccs2)nc(-c2ccc(S(C)(=O)=O)cc2)n1 (configuration not stated) | – | > 266 | – | – |
| CS(=O)(=O)c1ccc(-c2nc(NCc3cc(F)cc(F)c3)cc(C(F)(F)F)n2)cc1 | 300 nM | > 333 | – | – |
| NS(=O)(=O)c1ccc(-c2nc(NCc3cccnc3)cc(C(F)(F)F)n2)cc1 | > 10000 nM | > 1 | > 1 | > 10000 nM |
| CS(=O)(=O)c1ccc(-c2nc(Nc3ccccc3)cc(C(F)(F)F)n2)cc1 | > 10000 nM | > 1 | – | – |
| CC(C)c1ccc(CNc2cc(C(F)(F)F)nc(-c3ccc(S(C)(=O)=O)cc3)n2)cc1 | > 10000 nM | > 1 | – | – |
| CS(=O)(=O)c1ccc(-c2nc(NC3CCCCC3)cc(C(F)(F)F)n2)cc1 | 238 nM | – | – | 253 nM |
| Cc1ccc(CNc2cc(Cl)nc(-c3ccc(S(C)(=O)=O)cc3)n2)cc1 | 44.4 nM | > 2250 | – | – |
| CS(=O)(=O)c1ccc(-c2nc(NCC3CCCCC3)cc(C(F)(F)F)n2)cc1 | – | > 68 | > 3610 | – |

| SMILES | IC50 [1] | Ratio IC50 [2] | Ratio IC50 [3] | IC50 [4] |
| --- | --- | --- | --- | --- |
| CC(C)c1ccc(Nc2cc(C(F)(F)F)nc(-c3ccc(S(C)(=O)=O)cc3)n2)cc1 | > 10000 nM | > 1 | – | – |
| CCc1c(NCc2cccs2)nc(-c2ccc(S(C)(=O)=O)cc2)nc1C(F)(F)F | 121 nM | > 83 | – | – |
| CS(=O)(=O)c1ccc(-c2nc(O)cc(NCc3ccccc3)n2)cc1 | – | > 2030 | – | – |
| CS(=O)(=O)c1ccc(-c2nc(NCc3ccc(C(F)(F)F)cc3)cc(C(F)(F)F)n2)cc1 | – | > 52 | – | – |
| Cc1ccc(CNc2cc(C(F)(F)F)nc(-c3ccc(S(C)(=O)=O)cc3)n2)s1 | 11.7 nM | > 852 | – | – |
| Cc1ccc(CNc2cc(C(F)(F)F)nc(-c3ccc(S(C)(=O)=O)cc3)n2)cc1 | 48.4 nM | > 2060 | – | – |
| CCSc1cc(NCc2cccs2)nc(-c2ccc(S(C)(=O)=O)cc2)n1 | 1.2 nM | > 8400 | – | – |
| CCS(=O)(=O)c1cc(NCc2ccccc2)nc(-c2ccc(S(C)(=O)=O)cc2)n1 | 90.7 nM | > 110 | – | – |
| CC(C)Nc1cc(NCc2ccccc2)nc(-c2ccc(S(C)(=O)=O)cc2)n1 | 274 nM | > 365 | – | – |
| CCc1c(NCc2ccc(F)cc2)nc(-c2ccc(S(C)(=O)=O)cc2)nc1C(F)(F)F | – | > 972 | – | – |
| CS(=O)(=O)c1ccc(-c2nc(O)cc(NCc3cccs3)n2)cc1 | – | > 1260 | – | – |
| CCS(=O)(=O)c1cc(NCc2cccs2)nc(-c2ccc(S(C)(=O)=O)cc2)n1 | 144 nM | 15 | – | – |
| Cn1cccc1CCNc1cc(C(F)(F)F)nc(-c2ccc(S(C)(=O)=O)cc2)n1 | 3980 nM | > 25 | – | – |
| CS(=O)(=O)c1ccc(-c2nc([S+]([O-])Cc3ccccc3)cc(C(F)(F)F)n2)cc1 (configuration not stated) | > 10000 nM | > 1 | – | – |
| CS(=O)(=O)c1ccc(-c2nc(NCCc3cccs3)cc(C(F)(F)F)n2)cc1 | – | > 83 | – | – |
| CS(=O)(=O)c1ccc(-c2nc(NCc3ccc(N)cc3)cc(C(F)(F)F)n2)cc1 | – | 473 | – | – |
| CCN(Cc1ccccc1)c1cc(C(F)(F)F)nc(-c2ccc(S(C)(=O)=O)cc2)n1 | > 10000 nM | > 1 | – | – |
| CCSc1cc(NCc2ccccc2)nc(-c2ccc(S(C)(=O)=O)cc2)n1 | 24.1 nM | 414 | – | – |
| Cc1c(NCc2ccccc2)nc(-c2ccc(S(C)(=O)=O)cc2)nc1C(F)(F)F | 18 nM | > 556 | – | – |
| CS(=O)(=O)c1ccc(-c2nc(C(F)(F)F)cc(S(=O)(=O)Cc3ccccc3)n2)cc1 | > 10000 nM | > 1 | – | – |

| SMILES | IC50 [1] | Ratio IC50 [2] | Ratio IC50 [3] | IC50 [4] |
| --- | --- | --- | --- | --- |
| COc1ccc(CNc2cc(C(F)(F)F)nc(-c3ccc(S(C)(=O)=O)cc3)n2)cc1 | 272 nM | > 367 | – | – |
| Cc1cccc(CNc2cc(C(F)(F)F)nc(-c3ccc(S(C)(=O)=O)cc3)n2)c1 | – | > 52 | – | – |
| COc1cc(NCc2cccs2)nc(-c2ccc(S(C)(=O)=O)cc2)n1 | – | > 22000 | – | – |
| COc1cc(NCc2ccccc2)nc(-c2ccc(S(C)(=O)=O)cc2)n1 | 5.1 nM | > 19600 | – | – |
| CS(=O)(=O)c1ccc(-c2nc(Cl)cc(NCc3ccc(F)cc3)n2)cc1 | – | 2970 | – | – |
| CS(=O)(=O)c1ccc(-c2nccc(NCc3ccccc3)n2)cc1 | > 10000 nM | > 1 | – | – |
| CS(=O)(=O)c1ccc(-c2nc(NCc3ccc(F)cc3)cc(C(F)(F)F)n2)cc1 | 77.2 nM | 1300 | – | – |
| CS(=O)(=O)c1ccc(-c2nc(NCc3ccc(O)cc3)cc(C(F)(F)F)n2)cc1 | – | > 158 | – | – |
| CS(=O)(=O)c1ccc(-c2nc(NCc3cc4ccccc4s3)cc(C(F)(F)F)n2)cc1 | 293 nM | – | – | 5.92 nM |
| Cc1c(NCc2cccs2)nc(-c2ccc(S(C)(=O)=O)cc2)nc1C(F)(F)F | 38.2 nM | > 78 | – | – |
| CN(Cc1ccccc1)c1cc(C(F)(F)F)nc(-c2ccc(S(C)(=O)=O)cc2)n1 | – | 22 | – | – |
| CS(=O)(=O)c1ccc(-c2nc(NCc3ccc(OC(F)(F)F)cc3)cc(C(F)(F)F)n2)cc1 | > 10000 nM | > 1 | – | – |
| CC(C)Nc1cc(NCc2cccs2)nc(-c2ccc(S(C)(=O)=O)cc2)n1 | 10.3 nM | > 9720 | – | – |
| CS(=O)(=O)c1ccc(-c2nc(Cl)cc(NCc3ccccc3)n2)cc1 | – | > 9120 | – | – |
| CC(C)c1cc(NCc2ccccc2)nc(-c2ccc(S(C)(=O)=O)cc2)n1 | – | > 396 | – | – |
| CS(=O)(=O)Oc1ccc(CNc2cc(C(F)(F)F)nc(-c3ccc(S(C)(=O)=O)cc3)n2)cc1 | > 10000 nM | > 1 | – | – |
| CS(=O)(=O)c1ccc(-c2nc(Cl)cc(NCc3cccs3)n2)cc1 | – | > 81300 | – | – |
| COCOc1ccc(CNc2cc(C(F)(F)F)nc(-c3ccc(S(C)(=O)=O)cc3)n2)cc1 | > 10000 nM | > 1 | – | – |
| CC(C)(C)c1cc(NCc2ccccc2)nc(-c2ccc(S(C)(=O)=O)cc2)n1 | – | 1060 | – | – |
| CS(=O)(=O)c1ccc(-c2nccc(NCc3cccs3)n2)cc1 | 9.2 nM | > 10900 | – | – |
